Where “and” joins values, the source holds several entries; their conditions need not be identical. Identical values can stand only once. Counter-ions that a name gives are not always drawn.
Columns and labels:
hair cells [1] = assay: Neomycin Hair Cell Toxicity Assay in Zebrafish; type: in vivo
Description: Zebrafish are bred and newly fertilized embryos are collected the week prior and raised at 28.5° C. in petri dishes containing embryo medium. Newly hatched free-swimming larvae are fed paramecium and dry fish food at 4 days post fertilization (dpf) with lights on. For treatment, fish 5-7 dpf are transferred to cell culture baskets and place within a well of a 6-well plate containing 7 milliliters of 1× embryo medium. Typically, tests are done with ten fish per basket but work well with up to 50 fish. All treatment and wash volumes are 7 milliliters.
1. Fish are pre-treated with test compound for 1 hour. Concentrations between 0.010 to 25 micromolar of test compound are tested.
2. Treat with 200 micromolar neomycin (neomycin sulfate, Sigma, St. Louis, Mo., catalog #N1142)+ test compound for 30 minutes.
3. […]
5. […] The DASPEI staining of ten neuromasts (SO1, SO2, IO1, IO2, IO3, IO4, M2, MI1, MI2 and O2) on one side of an animal are evaluated. Each neuromast is scored for presence of DASPEI staining (score=2), reduced DASPEI staining (score=1) or absence of DASPEI staining (score=0). […] Average scores and standard deviations are calculated for animals in each treatment group. Scores are normalized to control group (vehicle only, no drug, no neomycin) and expressed as % hair cell survival. […] If less than 50% hair cells survive, the HC50 is not determined. […]

hair cells [2] = assay: Cisplatin Hair Cell Toxicity Assay in Zebrafish; type: in vivo; conditions: cisplatin 50 μM for 24 hrs
Description: Zebrafish are bred and newly fertilized embryos are collected the week prior and raised at 28.5° C. in petri dishes containing embryo medium. Newly hatched free-swimming larvae are fed paramecium and dry fish food at 4 days post fertilization (dpf) with lights on. For treatment, fish 5-7 dpf are transferred to cell culture baskets and place within a well of a 6-well plate containing 7 milliliters of 1× embryo medium. Typically, tests are done with ten fish per basket but work well with up to 50 fish. All treatment and wash volumes are 7 milliliters. • 1. In a 48-well plate, place 10-12 fish/well in 300 μl of EM. • 2. Add ORC-13661 and vehicle control to each well at concentrations listed below. Swirl and place in incubator for 15 min. ORC-13661 concentrations tested: 0.103 μM, 0.308 μM, 0.925 μM, 2.78 μM, 8.33 μM. • 3. Add cisplatin 50 μM to pretreated and control wells. Swirl and place in incubator for 24 hrs. • 4. Place 1-2 drops of MS222 in each well to anesthetize fish, then aspirate treated EM. • 5. Add 300 μl/well of 4% paraformaldehyde to fix fish. Fix overnight at 4° C. or 2 hrs at room temperature (RT). • 6. Rinse wells with PBS for 15 min each 3 times. • 7. Add 300 μl/well of blocking solution for 1 hr at RT. • 8. Incubate with 300 μl/well of 1:400 mouse anti-Parvalbumin antibody overnight at 4° C. • 9. Rinse wells with PBS-T for 15 min each 3 times. • 10. […]

kidney = assay: Effect of Amikacin and Compound 9 on Kidney Function; type: in vivo, Fischer 344 rats; conditions: for creatinine clearance (CrCl) post-treatment compared to pretreatment: FIG. 3; for kidney histopathology damage score (0-4): FIG. 4
Description: The study consisted of three groups of Fischer 344 rats aged 6 weeks and weighing approximately 200 g at the start of the study. Group 1 consisted of six rats, randomly selected to receive amikacin only, Group 2 consisted of six rats chosen randomly to receive amikacin and compound 9, and Group 3 consisted of three rats, 2 rats given compound 9 and 1 rat given only 0.5% Methylcellulose, the diluent for compound 9. All animals receiving amikacin were given 320 mg/kg subcutaneously (SQ) from a freshly prepared solution of amikacin of 40 mg/mL. The compound 9 formualtion was prepared by weighing 13.08 mg of compound 9 dissolved in 12 mL of 0.5% MC in saline with vortexing, sonification and homogenization to obtain a solution with concentration at 12 mg/12 mL=1 mg/mL, dose volume is 5 mL/kg (5 mg/kg). The compound 9 solution was given by oral gavage at a dose of 5 mg/kg.
One day prior to the onset of dosing, blood was drawn from all rats for serum analysis and all rats were put into metabolic cages for 24 hour urine collection and analysis. All rats were returned to normal cages and allowed to eat and drink ad lib. All rats received their assigned treatments for 10 days and then were returned to metabolic cages for the 10th day. Three rats were randomly chosen from each of Group 1 and Group 2 to have additional blood draws at 30 min, 60 mn, 2 hr, 4 hr, 8 hr and 24 hr after the 10th dose for amikacin and compound 9 PK analysis. All rats had blood drawn for serum analysis at the end of day 10 and the 24 hour urine collected from day 10. After the final blood draw, all rats were euthanized and their kidneys removed and prepared for histopathology testing. The left kidneys were longitudinally sectioned, the right kidneys were cross sectioned. The pathologist read the slides, blinded to the group from which they were assigned. They graded viewed five different locations on each slide and gave each location a score for degree of damage: no damage (0 score); minimal (1-10%, 1 score), mild (11-20%, 2 score), moderate (21-50%, 3 score), or marked (51-100%, 4 score).
Previous studies have shown that aminoglycoside renal toxicity primarily affects the proximal and distal tubules of the kidney, eventually causing […] of the epithelial cells. The resulting damage causes, in part, decreased glomerular filtration rate (GFR) which may be a result of the tubular damage or partly through other mechanisms. The GFR was approximated using the creatinine clearance. […] The one-sided two-sample t-test p-value for the comparison of the amikacin only (Group 1) and amikacin+compound 9 (Group 2) are shown in a box between the two columns.

rats = assay: Auditory Brainstem Response (ABR) Assay; type: in vivo; conditions: Day 24 vs Day 0, FIG. 2
Description: Chronic treatment of rats with aminoglycosides (AGs) such as kanamycin or amikacin results in an elevation of ABR thresholds, typically most pronounced at higher frequencies. For rats, hearing is tested at a range of frequencies to determine the intensity of sound (measured in decibels) necessary to evoke a response. As hearing loss becomes more severe, a higher intensity is needed to evoke a response. Each rat serves as its own control; hearing thresholds are determined at each frequency prior to any treatment and then at 2 weeks after a 10-day course of AG treatment (or control drug exposures).
The ABR assay measures short latency field potentials recorded from the scalp of animals that were sedated or noninvasively immobilized. […] For each animal, hearing thresholds, wave 1 latencies and input-output functions for stimulus frequencies at 2, 4, 8, 16 and 32 kHz were measured prior to any treatment to determine the initial sensitivity and dynamic range of hearing, and then repeated at the end of drug treatment and at the end of the experiment (2-weeks after dosing). […]
ABR records were evaluated by a “blinded”, trained experimenter. Hearing loss (Threshold Shift) was determined by subtracting the threshold during pre-treatment (Day 0) from the final ABR threshold (Day 24; two weeks following treatment). […]

Compound | EC50 (hair cells [1]; Danio rerio, concentration that would produce 50% hair cell survival, 1 hour pre-treatment, then 200 micromolar neomycin + test compound for 30 minutes, read-out: HC50 (the source's name)) [µM] | Max HC Protection (hair cells [1]; at 2.6 μM, 200 micromolar neomycin, % hair cell survival normalized to control) [% protection at 2.6 μM] | EC50 (hair cells [2]; Danio rerio, 15 min pretreatment, read-out: HC50 (the source's name)) [µM] | Max HC Protection (hair cells [2]; at 8.33 μM, hair cell counts as % control) [% protection at 8.33 μM] | creatinine clearance (CrCl) post-treatment compared to pretreatment (kidney; Group 2: amikacin 320 mg/kg SQ + compound 9 5 mg/kg oral gavage for 10 days) | kidney histopathology damage score (0-4) (kidney; amikacin + compound 9 treated rats, longitudinal and cross sectioning (values not assigned to section in text), vs amikacin only p<0.005, hydrochloride) | Hearing loss (ABR Threshold Shift), high frequency (rats; Amikacin SC 320 mg/kg/day + Compound 9 PO 5 mg/kg/day for 10 days) | creatinine clearance (CrCl) post-treatment compared to pretreatment (kidney; Group 1: amikacin only 320 mg/kg SQ for 10 days) | kidney histopathology damage score (0-4) (kidney; amikacin only rats, longitudinal and cross sectioning of the kidney) | Hearing loss (ABR Threshold Shift) (rats; Amikacin alone SC 320 mg/kg/day for 10 days)
CN1[C@H]2CC[C@@H]1c1c(sc(NC(=O)Nc3ccc(Cl)cc3)c1C(N)=O)C2 [Compound 9, (4R,7S)-2-(3-(4-chlorophenyl)ureido)-9-methyl-5,6,7,8-tetrahydro-4H-4,7-epiminocyclohepta[b]thiophene-3-carboxamide hydrochloride] | < 1 | 96 | < 1 | 90 | significantly different from baseline | 3.6 and 3.1 | robust protection |  |  | 
NCC[C@H](O)C(=O)N[C@@H]1C[C@H](N)[C@@H](O[C@H]2O[C@H](CN)[C@@H](O)[C@H](O)[C@H]2O)[C@H](O)[C@H]1O[C@H]1O[C@H](CO)[C@@H](O)[C@H](N)[C@H]1O [amikacin, reference compound] |  |  |  |  |  |  |  | significantly different from baseline | 3.9 | hearing loss
